From PMC9785688 (Pharmaceutics, 2022)
Where two headings read alike, the source gives them in different places.

Legend:
[1] = rodents, at 30 min, microdose; cited from earlier work
[2] = set-up: method as in PMID 30630940; details: humans, at 30 min, microdose; cited from earlier work
[3] = target: T1, P-glycoprotein (P-gp) function at the blood-brain barrier (BBB) (Rattus norvegicus, UniProt Q6PSM0); test: [^11C]metoclopramide brain PET imaging with kinetic modelling (Logan plot) in rats; type: in vivo; details: oral pretreatment of healthy Sprague Dawley rats (CBZ 45 mg/kg twice a day for 7 days; RIT 20 mg/kg 3 h before PET)
T1 construct: Kinetic modeling was performed to estimate the impact of these drugs on P-gp function at the BBB; from tissue; host or cells: blood-brain barrier (brain) of living Sprague Dawley rats, in vivo PET
Description: In animals of the CBZ group (n = 4), CBZ suspension was administered by oral gavage at a dose of 45 mg/kg, twice a day (8 A.M and 5 P.M) for 7 days before the PET imaging. Each animal received a total of 14 doses of CBZ before the PET experiment.
A RIT suspension (10 mg/mL) was freshly prepared prior to oral administration by adding 100 mg of RIT powder to 9.4 mL of water for injection. Animals of the RIT group (n = 4) received a single dose of 20 mg/kg of RIT 3 hours before the PET experiment.
PET acquisitions were performed in Baseline, CBZ and RIT pretreated animals (n = 4 per condition) using an Inveon microPET scanner (Siemens, Knoxville, TN, USA). Anesthesia was induced and thereafter maintained using 3.5% and 1.5–2.5% isoflurane in O2, respectively.
Images were reconstructed with the Fourier rebinning algorithm and the 3-dimensional ordered-subset expectation-maximization algorithm, including normalization, attenuation, scatter, and random corrections. […] Radioactivity was corrected for ^11C decay and expressed as standardized uptake value (SUV, unitless) after correction for injected dose and animal weight. […]
Kinetic modeling was also performed using PMOD software. […] Each individual IDIF was corrected by a group-specific, average whole-blood/plasma radioactivity ratio which was obtained from the arterial blood samples collected in the separate groups of animals (see above).

P-gp = details: cited from earlier work

T1 sequence (Q6PSM0 1-1272): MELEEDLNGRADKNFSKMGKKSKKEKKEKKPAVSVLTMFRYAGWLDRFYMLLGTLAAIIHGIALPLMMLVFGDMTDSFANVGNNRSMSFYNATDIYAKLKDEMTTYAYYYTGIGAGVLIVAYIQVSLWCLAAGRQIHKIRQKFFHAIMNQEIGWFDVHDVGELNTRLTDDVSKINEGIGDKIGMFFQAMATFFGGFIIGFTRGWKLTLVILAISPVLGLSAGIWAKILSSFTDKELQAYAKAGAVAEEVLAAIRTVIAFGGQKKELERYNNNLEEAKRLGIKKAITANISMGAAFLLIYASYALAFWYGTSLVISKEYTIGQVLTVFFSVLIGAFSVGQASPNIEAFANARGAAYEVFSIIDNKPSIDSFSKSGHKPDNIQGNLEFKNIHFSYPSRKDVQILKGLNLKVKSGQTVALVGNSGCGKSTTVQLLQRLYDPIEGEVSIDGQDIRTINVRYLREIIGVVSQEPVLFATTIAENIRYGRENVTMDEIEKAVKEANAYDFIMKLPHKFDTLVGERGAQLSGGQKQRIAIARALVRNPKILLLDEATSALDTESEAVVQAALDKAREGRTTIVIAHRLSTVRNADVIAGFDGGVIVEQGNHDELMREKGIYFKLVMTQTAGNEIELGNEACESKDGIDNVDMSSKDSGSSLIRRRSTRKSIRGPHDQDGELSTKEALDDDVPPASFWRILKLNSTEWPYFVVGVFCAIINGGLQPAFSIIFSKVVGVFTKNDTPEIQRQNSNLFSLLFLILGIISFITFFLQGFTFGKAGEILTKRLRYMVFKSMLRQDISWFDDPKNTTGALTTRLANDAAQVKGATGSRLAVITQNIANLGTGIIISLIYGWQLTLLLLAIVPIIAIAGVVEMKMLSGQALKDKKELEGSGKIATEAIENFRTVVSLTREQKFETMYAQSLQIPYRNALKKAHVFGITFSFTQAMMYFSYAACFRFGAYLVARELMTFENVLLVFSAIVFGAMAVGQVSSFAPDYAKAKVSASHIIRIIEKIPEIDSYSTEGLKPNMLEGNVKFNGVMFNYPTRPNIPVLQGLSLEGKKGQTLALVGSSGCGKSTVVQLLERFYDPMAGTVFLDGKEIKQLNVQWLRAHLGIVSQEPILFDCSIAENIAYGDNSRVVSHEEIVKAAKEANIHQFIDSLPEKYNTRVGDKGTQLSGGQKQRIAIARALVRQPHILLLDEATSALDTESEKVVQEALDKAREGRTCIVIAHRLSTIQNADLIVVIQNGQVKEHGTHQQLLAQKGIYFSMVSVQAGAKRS

| Effect on P-gp function at the BBB (from [^11C]metoclopramide PET) [3] | SMILES | Fraction of parent [^11C]metoclopramide [1] | Fraction of parent [^11C]metoclopramide [2] | P-gp inhibition in vitro (P-gp) |
| --- | --- | --- | --- | --- |
| – | CCN(CC)CCNC(=O)c1cc(Cl)c(N)cc1O[11CH3] [[^11C]metoclopramide] | ~ 10% | ~ 60% | – |
| apparently behaving as an inhibitor | CC(C)c1nc(CN(C)C(=O)N[C@H](C(=O)N[C@@H](Cc2ccccc2)C[C@H](O)[C@H](Cc2ccccc2)NC(=O)OCc2cncs2)C(C)C)cs1 [RIT, ritonavir] | – | – | potent P-gp inhibitor |
| does not substantially induce or inhibit | NC(=O)N1c2ccccc2C=Cc2ccccc21 [CBZ, carbamazepine] | – | – | – |
